This is an account of results in patent US20240132463A1, “SUBSTITUTED N-(2-(2,6-DIOXOPIPERIDIN-3-YL)-1,3-DIOXOISOINDOLIN-5-YL)ARYLSULFONAMIDE ANALOGS AS MODULATORS OF CEREBLON PROTEIN” (ST. JUDE CHILDREN'S RESEARCH HOSPITAL, INC., priority 2020, published 2024).

A word on the IC50: it is the midpoint of a concentration-inhibition curve. Usually Papp stands for a coefficient for how fast a substance crosses the barrier. Lower therefore signals slow passage. The EC50 is the concentration needed to bring the measured effect to its halfway point. A lower EC50 goes with an effect from little substance. Broadly, the Dmax is the largest share of the target that was removed. High values mean deep degradation, low ones shallow degradation.

Series [1] relates to MV4-11 cells. Kind of series: MV-4-11 cell viability assay. The series is classed as cell-based, human. To be noted: 72 hours, Cell Titer Glo. A general note: Cellular ATP, detected with luciferase, serves as a proxy for viable cell number.
Protocol: (§2) MV-4-11 cell line was purchased from the American Type Culture Collection (ATCC, Manassas, VA). The cells were cultured according to recommendations in IMDM cell culture media (ATCC). Exponentially growing MV-4-11 cells were plated at 1,000 cells per well in Corning 8804BC white 384-well assay plates and incubated overnight at 37° C. in a humidified 5% CO2 incubator. Compounds were transferred to the assay plate from a dose-response plate using a Pintool on a Biomek FXP Laboratory Automation Workstation (Beckman Coulter). Cytotoxicity was determined following 72 hours of incubation using Promega Cell Titer Glo reagent according to the manufacturer's recommendation. Luminescence was measured on an Envision plate reader (Perkin-Elmer).
(§3) Compounds were screened in human cancer cell lines and each cell line was cultured in the complete medium recommended by the vendor and seeded in Corning 8804BC white 384-well assay plates at density of 1,000, 1,000, 1,000, 1,500 and 7,500 cells per well, for MV4-11, HD-MB03, MB004, MB002 and MHH-CALL4 cells respectively. After overnight incubation at 37° C. in a humidified 5% CO2 incubator, cells were treated with compounds in dose-response format using a Pintool on a Biomek FXP Laboratory Automation Workstation (Beckman Coulter). […] After 72 h incubation, cell proliferation was assessed using Cell Titer-Glo (CTG) luminescent cell viability assay (Promega) according to the manufacturer's instruction. Luminescence signal was measured using an Envision plate reader (Perkin-Elmer).
The target in the next series is GSPT1 HiBiT tag protein (Homo sapiens (Human), UniProt P15170+Q96SW2). Kind of series: hGSPT1 HiBiT assay. It is filed as cell-based. To be noted: read-out: GSPT1 HiBit EC50; HEK293 hGSPT1 HiBiT cells, 4 hrs incubation. As for the experimental part: hGSPT1 HiBiT cell line. HEK293_hGSPT1_HiBiT tagged cells were generated using CRISPR-Cas12a technology. Briefly, ˜400,000 HEK293 cells were transiently co-transfecting with precomplexed ribonuclear proteins (RNPs) consisting of […] of crRNA (IDT), 62 pmol of Cas12a protein (IDT), 3 ug of ssODN donor (IDT; AltR™ modifications), 78 pmol of electroporation enhancer (IDT), and 200 ng of pMaxGFP (Lonza). The transfection was performed via nucleofection (Lonza, 4D-Nucleofector™ X-unit) using solution P3 and program CM-130 in a small (20 ul) cuvette according to the manufacturer's recommended protocol. Five days post-nucleofection, cells were single cell sorted for GFP+(transfected) cells by FACs in 96-well plates and clonally selected. Clones were screened and verified for the desired modification via targeted deep sequencing using gene specific primers with partial Illumina adapter overhangs as previously described.^58 In brief, clonal cell pellets were harvested, lysed and used to generate gene specific amplicons with partial Illumina adapters in PCR #1. Amplicons were indexed in PCR #2 and pooled with other targeted amplicons for other loci to create sequence diversity. Additionally, 10% PhiX Sequencing Control V3 (Illumina) was added to the pooled amplicon library prior to running the sample on an Miseq Sequencer System (Illumina) to generate paired 2×250 bp reads. […] Editing construct sequences and screening primers are listed below in Table 4.
hGSPT1 HiBiT assay. […] After 4 hrs incubation, the level of GSPT1 HiBiT tag protein was evaluated using Nano-Glo® HiBiT Lytic Detection System (Promega) according to the manufacturer's instruction.

A further series deals with 6×His-CRBN-DDB1 protein (Homo sapiens (Human), UniProt Q96SW2). Briefly: CRBN fluorescence polarization assay. It is filed as binding. As for the experimental part: 6×His-CRBN-DDB1 protein (200 nM) and Cy5-O-Len probe (30 nM) were combined in 20 mM HEPES pH 7, 150 mM NaCl, 0.005% Tween-20 assay buffer. […] The plates were incubated in the dark for 1 hour at room temperature and then read on an Envision plate reader (PerkinElmer, Massachusetts, USA).
Background: Fluorescence polarisation rises when a labelled molecule tumbles more slowly, as on binding a larger partner.

For another series, the target named is GSPT1 (Homo sapiens (Human), UniProt P15170+Q96SW2). Briefly: GSPT1 degradation by immunoblot in MV4-11 cells. It is filed as cell-based. As for the experimental part:
(§1) MV4-11 cells were seeded in 6-well plates (1×10^6 cells per well). After overnight incubation, the cells were treated with indicated concentrations for specific timepoints. […] After blocking the membrane with LI-COR TBS blocking buffer and incubation in primary antibody overnight, the corresponding protein signals were detected using IRDye secondary antibodies and Odyssey Imaging System. Image Studio Lite Ver 5.2 was used for blot quantification. […] IRDye® 800CW Goat anti-Mouse IgG Secondary Antibody and IRDye® 68ORD Goat anti-Rabbit IgG Secondary Antibody were used as secondary antibodies.
In general terms: A western blot detects proteins with antibodies after separation by electrophoresis.

The subject of the next series is MDCKII-MDR1 cells. Briefly: MDCKII-MDR1 permeability assay. To be noted: permeability in MDCK-MDR1 cells. It is filed as in vitro ADME. The protocol: High throughput […]1 permeability was performed in the Transwell® 0.4 μm polycarbonate membrane 96-well system with modified methods (Refs. 38-39). […]1 cells were maintained at 37° C. in a humidified incubator with an atmosphere of 5% CO2. The cells were cultured in 75 cm^2 flasks with Dulbecco's Modified Eagle's Medium (DMEM) containing 10% fetal bovine serum (FBS), 1% non-essential amino acids (NEAA), 100 units/ml of penicillin, and 100 μg/ml of streptomycin. The […]1 cells were seeded onto inserts at a density of 2×10^4 and 1×10^4 cells/insert separately. The medium in the wells was exchanged each other day, and the trans epithelial electrical resistance (TEER) value was measured using an epithelial volt-ohm meter (Millipore, Billerica, Massachusetts). […] For transport experiments, each cultured monolayer on the 96-well plate was washed twice with a transport buffer (HBSS/25 mM HEPES, pH 7.4). The permeability assay was initiated by the addition of each compound solution (10 μmol/L) into inserts (apical side, A) or receivers (basolateral side, B). The MDCKII-MDR1 cell monolayers were incubated for 1 hour at 37° C. Fractions were collected from receivers (if apical to basal permeability) or inserts (if basal to apical permeability), and concentrations were assessed by UPLC/MS (Waters; Milford, MA). All compounds were tested in triplicates. The A→B (or B→A) apparent permeability coefficients (Papp) of each compound were calculated using the equation, Papp=dQ/dt×1/AC0, where dQ/dt equals the flux of a drug across the monolayer, A equals the total insert well surface area, and C0 is the initial concentration of substrate in the donor compartment. The efflux ratio was determined by dividing the Papp in the B-A direction by the Papp in the A-B direction.

The next series concerns the target IKZF1 (Homo sapiens (Human), UniProt Q13422+Q96SW2). Kind of series: IKZF1 degradation by immunoblot in MV4-11 cells. It is filed as cell-based. To be noted: for DC50: read-out: IKZF1 DC50, 24 h treatment. The protocol: as §1
A short description of another series: Aqueous solubility assay. The series is classed as physicochemical. The settings on record: aqueous solubility at pH = 7.4, triplicate. As for the experimental part: Solubility assays were carried out on a Biomek FX lab automation workstation (Beckman Coulter, Inc., Fullerton, CA) using μSOL Evolution software (pION Inc., Woburn, MA). 10 μL of 10 mM compound stock (in DMSO) was added to 190 μL 1-propanol to make a reference stock plate. 5 μL from this reference stock plate were mixed with 70 μL 1-propanol and 75 μL citrate phosphate-buffered saline (PBS;isotonic) to make the reference plate, and the UV spectrum (250-500 nm) of the reference plate was read. 6 μL of 10 mM test compound stock was added to 594 μL buffer in a 96-well storage plate and mixed. The storage plate was sealed and incubated at RT for 18 h. The suspension was then filtered through a 96-well filter plate (pION Inc., Woburn, MA). 75 μL of filtrate was mixed with 75 μL 1-propanol to make the sample plate, and the UV spectrum of the sample plate was read. Calculations were carried out with μSOL Evolution software based on the area under the curve (AUC) of the UV spectrum of the sample and reference plates. All compounds were tested in triplicate.

In a further series the test system is cells. The settings on record: Ref. 13; cited from earlier work.
In another series the test system is caspase 3/7. Kind of series: Caspase 3/7 activity assay. To be noted: MV4-11 cells, Caspase-Glo, 4, 8 and 24 hours, 10 and 100 nM. It is filed as cell-based, human.
Series [2] concerns CRBN knockout MV4-11 cells. Briefly: Cell viability in CRBN knockout MV4-11 cells. It is filed as cell-based, human. The settings on record: CRBN knockout vs wild-type MV4-11 cells.
Protocol: as §2
CRBN-deficient MV4:11 cells were generated using CRISPR-Cas9 technology. […] Five days post nucleofection, cells were single-cell sorted by FACs to enrich for GFP+(transfected) cells, clonally selected, and verified for the desired targeted modification via targeted deep sequencing using gene specific primers with partial Illumina adapter overhangs (hCRBN.F—5′-[sequence]-3′ (SEQID: 6) and hCRBN.R—5′-[sequence]-3′, (SEQID: 7); overhangs not shown) and analyzed using CRIS.py (Ref. 36).
For series [3], the system named is MV4-11 cells. Kind of series: Lenalidomide competition assay. The series is classed as cell-based, human. To be noted: co-treatment with lenalidomide 10 μM, 72 h.
Protocol: as §3
Another series has as its system human cancer cell lines. Kind of series: Cell proliferation in human cancer cell lines. It is filed as cell-based. The settings on record: data not shown.

Structures are written as SMILES. Read-outs that look alike come from different tables or passages of the source. Bounds are passed on as bounds.

Sequence of 6×His-CRBN-DDB1 protein (Q96SW2 whole entry): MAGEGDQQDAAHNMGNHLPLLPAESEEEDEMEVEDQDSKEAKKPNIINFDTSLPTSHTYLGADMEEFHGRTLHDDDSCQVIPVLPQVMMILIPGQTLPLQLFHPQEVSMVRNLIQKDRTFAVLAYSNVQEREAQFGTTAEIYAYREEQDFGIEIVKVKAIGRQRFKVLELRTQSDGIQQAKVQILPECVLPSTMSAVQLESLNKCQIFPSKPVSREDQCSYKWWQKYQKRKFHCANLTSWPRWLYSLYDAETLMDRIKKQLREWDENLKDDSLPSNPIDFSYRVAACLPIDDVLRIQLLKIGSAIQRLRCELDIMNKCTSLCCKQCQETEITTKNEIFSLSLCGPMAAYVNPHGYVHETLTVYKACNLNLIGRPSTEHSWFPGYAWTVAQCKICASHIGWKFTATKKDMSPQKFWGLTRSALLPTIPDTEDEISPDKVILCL
Sequence of 6×His-CRBN-DDB1 protein (Q16531 whole entry partner): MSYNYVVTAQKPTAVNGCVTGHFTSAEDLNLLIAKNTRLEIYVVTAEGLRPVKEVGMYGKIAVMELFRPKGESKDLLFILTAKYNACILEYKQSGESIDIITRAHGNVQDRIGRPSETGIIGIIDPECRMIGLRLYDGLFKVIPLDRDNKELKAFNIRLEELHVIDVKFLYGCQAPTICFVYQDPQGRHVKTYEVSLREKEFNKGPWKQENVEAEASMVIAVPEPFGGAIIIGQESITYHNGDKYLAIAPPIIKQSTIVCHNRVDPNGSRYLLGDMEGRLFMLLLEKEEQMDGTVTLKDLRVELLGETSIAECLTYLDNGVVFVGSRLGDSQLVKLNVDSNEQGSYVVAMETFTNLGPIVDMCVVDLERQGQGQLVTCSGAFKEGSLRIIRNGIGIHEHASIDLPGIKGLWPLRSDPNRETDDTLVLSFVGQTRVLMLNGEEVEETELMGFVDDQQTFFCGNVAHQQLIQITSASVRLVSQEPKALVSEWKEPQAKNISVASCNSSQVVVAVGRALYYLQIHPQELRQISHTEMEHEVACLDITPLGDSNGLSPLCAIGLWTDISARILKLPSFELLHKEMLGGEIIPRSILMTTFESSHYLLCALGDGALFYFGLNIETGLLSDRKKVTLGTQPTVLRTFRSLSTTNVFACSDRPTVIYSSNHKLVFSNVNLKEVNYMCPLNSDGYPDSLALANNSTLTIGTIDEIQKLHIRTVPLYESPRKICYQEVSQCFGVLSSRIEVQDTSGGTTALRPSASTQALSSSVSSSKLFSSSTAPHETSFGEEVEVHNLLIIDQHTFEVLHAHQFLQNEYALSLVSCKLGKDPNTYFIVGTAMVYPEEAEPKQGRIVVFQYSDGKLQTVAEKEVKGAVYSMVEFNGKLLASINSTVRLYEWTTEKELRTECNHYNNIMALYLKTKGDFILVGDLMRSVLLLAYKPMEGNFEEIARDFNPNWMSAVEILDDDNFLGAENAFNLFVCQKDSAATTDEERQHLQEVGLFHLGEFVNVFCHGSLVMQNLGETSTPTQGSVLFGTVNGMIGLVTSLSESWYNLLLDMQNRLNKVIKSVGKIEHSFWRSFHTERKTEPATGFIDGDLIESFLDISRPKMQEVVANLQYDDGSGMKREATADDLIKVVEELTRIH
Sequence of GSPT1 (P15170 whole entry): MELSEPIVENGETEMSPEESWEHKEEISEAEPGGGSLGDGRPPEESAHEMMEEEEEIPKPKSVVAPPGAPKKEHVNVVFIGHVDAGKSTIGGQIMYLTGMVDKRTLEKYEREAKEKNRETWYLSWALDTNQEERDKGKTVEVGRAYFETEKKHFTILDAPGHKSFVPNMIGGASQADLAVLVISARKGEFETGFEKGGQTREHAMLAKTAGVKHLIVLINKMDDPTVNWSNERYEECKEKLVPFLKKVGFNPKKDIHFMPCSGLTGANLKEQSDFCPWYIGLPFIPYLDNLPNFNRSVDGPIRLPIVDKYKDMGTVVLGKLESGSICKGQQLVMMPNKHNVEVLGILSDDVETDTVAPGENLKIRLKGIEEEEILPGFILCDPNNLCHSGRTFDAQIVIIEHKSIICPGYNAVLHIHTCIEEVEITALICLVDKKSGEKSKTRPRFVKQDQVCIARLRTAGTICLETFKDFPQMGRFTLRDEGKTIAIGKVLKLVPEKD
Sequence of GSPT1 (Q96SW2 whole entry): as the sequence (Q96SW2 whole entry) above
Sequence of GSPT1 (Q16531 whole entry partner): as the sequence (Q16531 whole entry partner) above
Sequence of GSPT1 HiBiT tag protein (P15170 whole entry): as the sequence (P15170 whole entry) above
Sequence of GSPT1 HiBiT tag protein (Q96SW2 whole entry): as the sequence (Q96SW2 whole entry) above
Sequence of GSPT1 HiBiT tag protein (Q16531 whole entry partner): as the sequence (Q16531 whole entry partner) above

Take `O=C1CCC(N2C(=O)c3ccc(NS(=O)(=O)c4cccc(OC(F)(F)F)c4)cc3C2=O)C(=O)N1` (centres unmarked) [Compound 2, N-(2-(2,6-dioxopiperidin-3-yl)-1,3-dioxoisoindolin-5-yl)-3-(trifluoromethoxy)benzenesulfonamide]: the “MV4-11 EC50” value in the series on MV4-11 cells [1] is on record as “no activity”. For the same molecule, the DC50 on GSPT1 HiBiT tag protein was greater than 10000 nM. The IC50 at 6×His-CRBN-DDB1 protein (CRBN FP IC50, cereblon binding, class symbols) was less than 1000 nM; at 6×His-CRBN-DDB1 protein (CRBN IC50, fluorescence polarization, Cy5-O-Len probe), 72 nM; on 6×His-CRBN-DDB1 protein (fluorescence polarization, Cy5-O-Len probe, read-out: CRBN IC50) it was 54 nM. The “effect on protein levels of GSPT1 by immunoblotting” value on GSPT1 (MV4-11 cells (FIG. 6)) is on record as “no effects”. For the same molecule, the “selectivity window GSPT1 over IKZF1 (DC50)” value at GSPT1 (MV4-11 cells, DC50 values at 24 hours) was found to be 30 fold. The Papp in the series on MDCKII-MDR1 cells came out at 4 ×10⁻⁶ cm/s. Also, the “effect on protein levels of IKZF1 by immunoblotting” value at IKZF1 (MV4-11 cells (FIG. 6)) is recorded as “no effects”. Besides, the IKZF1 protein abundance result at IKZF1 (MV4-11 cells, treatment over 24 hours) is on record as “dose-dependent decrease”. The molecule further registered a Sol. in the series “Aqueous solubility assay” of 64 µM.
In the series on MV4-11 cells [1] (Homo sapiens), `O=C1CCC(N2Cc3cc(CNC(=O)C(F)(F)c4ccc(Cl)cc4)ccc3C2=O)C(=O)N1` (centres unmarked) [CC-90009, 2-(4-chlorophenyl)-N-((2-(2,6-dioxopiperidin-3-yl)-1-oxoisoindolin-5-yl)methyl)-2,2-difluoroacetamide, reference compound] had an EC50 of 62 nM. In the series on MDCKII-MDR1 cells, this molecule yielded a Papp of 4.9 ×10⁻⁶ cm/s. For the same molecule, the Dmax at 10 µM on IKZF1 (MV4-11 cells, 4 hours, at 10 μM) was 55%. The DC50 on IKZF1 (MV4-11 cells) is 10 nM; at IKZF1 (MV4-11 cells, listed as CC90009), 9.9 nM. The molecule also registered a Sol. in “Aqueous solubility assay” of 77 µM.
Turning to `O=C1CC[C@H](N2Cc3c(OCc4ccc(CN5CCOCC5)cc4)cccc3C2=O)C(=O)N1` [CC-220, (S)-3-(4-((4-(morpholinomethyl)benzyl)oxy)-1-oxoisoindolin-2-yl)piperidine-2,6-dione], the “potency in cells relative to lenalidomide” value with cells is recorded as 10 fold.
Regarding `Cc1c(Cl)cccc1S(=O)(=O)Nc1ccc2c(c1)C(=O)N(C1CCC(=O)NC1=O)C2=O` (centres unmarked) [Compound 5, 3-chloro-N-(2-(2,6-dioxopiperidin-3-yl)-1,3-dioxoisoindolin-5-yl)-2-methylbenzenesulfonamide], the caspase activation result in the series with caspase 3/7 was “only observed at the 24 hour time point”. For the same molecule, the “antiproliferative activity in absence of CRBN” value in series [2] is reported as “abolished”. The “antiproliferative effect in presence of lenalidomide” value in the series on MV4-11 cells [3] is listed as “abrogating the antiproliferative effects”. The GSPT1 protein degradation at GSPT1 (MV4-11 cells, 24 hours, at 100 nM) was determined as 90%. Moreover, in the series on MDCKII-MDR1 cells, the Papp turned out to be 3.6 ×10⁻⁶ cm/s. Further, the “IKZF1 degradation at 4 hours” value on IKZF1 (MV4-11 cells, 4 hours, any concentration tested) is reported as “did not significantly degrade IKZF1”. The Sol. in “Aqueous solubility assay” turned out to be 64 µM.
Turning to `Cc1ccc(NC(=O)NCc2ccc3c(c2)CN(C2CCC(=O)NC2=O)C3=O)cc1Cl` (centres unmarked) [CC-885, N-(3-chloro-4-methylphenyl)-N′-[[2-(2,6-dioxo-3-piperidinyl)-2,3-dihydro-1-oxo-1H-isoindol-5-yl]methyl]-urea], in the series on human cancer cell lines, the “antiproliferative effects in cell lines” value is given as “displayed antiproliferative effects in all four cell lines”.
